The target of one assay is T1, FLT3 D835V (Homo sapiens, UniProt P36888, D835V).
T1 construct: host or cells: E. coli BL21-derived host (T7 phage) or HEK-293
T1 sequence (P36888 27-993 D835V): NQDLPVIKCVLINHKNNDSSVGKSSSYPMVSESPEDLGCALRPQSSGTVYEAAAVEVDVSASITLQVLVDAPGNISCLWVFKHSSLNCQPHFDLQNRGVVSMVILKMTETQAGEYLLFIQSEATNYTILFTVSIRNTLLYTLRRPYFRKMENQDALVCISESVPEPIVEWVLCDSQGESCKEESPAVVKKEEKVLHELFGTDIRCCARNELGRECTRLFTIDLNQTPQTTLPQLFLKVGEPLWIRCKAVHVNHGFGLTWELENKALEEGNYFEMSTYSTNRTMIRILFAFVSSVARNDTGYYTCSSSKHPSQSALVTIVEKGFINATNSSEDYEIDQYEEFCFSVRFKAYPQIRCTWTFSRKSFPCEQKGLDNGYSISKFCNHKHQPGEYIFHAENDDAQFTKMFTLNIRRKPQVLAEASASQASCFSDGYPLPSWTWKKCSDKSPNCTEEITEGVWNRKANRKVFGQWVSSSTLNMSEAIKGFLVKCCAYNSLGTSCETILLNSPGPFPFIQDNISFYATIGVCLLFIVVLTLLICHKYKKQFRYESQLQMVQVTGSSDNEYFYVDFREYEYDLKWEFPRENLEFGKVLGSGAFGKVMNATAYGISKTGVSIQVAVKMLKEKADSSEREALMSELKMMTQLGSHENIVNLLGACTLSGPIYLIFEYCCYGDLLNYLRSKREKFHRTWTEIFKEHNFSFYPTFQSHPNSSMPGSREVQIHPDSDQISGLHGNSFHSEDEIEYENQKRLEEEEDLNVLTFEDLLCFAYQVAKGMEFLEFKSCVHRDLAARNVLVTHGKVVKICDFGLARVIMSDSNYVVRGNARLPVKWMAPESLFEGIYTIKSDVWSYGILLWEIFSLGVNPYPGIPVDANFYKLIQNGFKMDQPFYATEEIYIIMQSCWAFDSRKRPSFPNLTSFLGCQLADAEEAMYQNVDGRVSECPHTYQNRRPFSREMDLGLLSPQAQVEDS
In words: DiscoverX KINOMEscan competition binding, FLT3 D835V. An excerpt:
(§1) Kinase binding data were obtained for various exemplary compounds prepared according to Examples 1-24 using the DiscoverX KINOMVIEscan® active site-directed competition binding site-directed assay protocol described below. […] As a result, the data report thermodynamic interaction affinities (Kd values), rather than IC50 values that are dependent on ATP concentrations. The assay uses a DNA-tagged version of the protein kinase, and an immobilized ligand bound to a solid support. Compounds that directly or indirectly prevent kinase binding to the immobilized ligand reduce the amount of kinase captured on the solid support, which is detected using an ultra-sensitive qPCR method. Affinity constants reported from the assay have been reported to be independent of the immobilized ligand used that is coupled to the solid support (See supplemental information in Fabian, M. A. et. al., (2005) Nat. Biotechnol. 23, 329-336; Wodicka, L. M. et. al., (2010) Chem. Biol. 17, 1241-1249.)
(§2) Kinase-tagged T7 phage strains were prepared in an E. coli host derived from the BL21 strain. E. coli were grown to log-phase and infected with T7 phage and incubated with shaking at 32° C. until lysis. The lysates were centrifuged and filtered to remove cell debris. The remaining kinases were produced in HEK-293 cells and subsequently tagged with DNA for qPCR detection. Streptavidin-coated magnetic beads were treated with biotinylated small molecule ligands for 30 minutes at room temperature to generate affinity resins for kinase assays. The liganded beads were blocked with excess biotin and washed with blocking buffer (SeaBlock (Pierce), 1% BSA, 0.05% Tween 20, 1 mM DTT) to remove unbound ligand and to reduce non-specific binding. Binding reactions were assembled by combining kinases, liganded affinity beads, and test compounds in 1× binding buffer (20% SeaBlock, 0.17×PBS, 0.05% Tween 20, 6 mM DTT). Test compounds were prepared as 111× stocks in 100% DMSO. Kds were determined using an 11-point 3-fold compound dilution series with three DMSO control points. All compounds for Kd measurements are distributed by acoustic transfer (non-contact dispensing) in 100% DMSO. The compounds were then diluted directly into the assays such that the final concentration of DMSO was 0.9%. All reactions were performed in polypropylene 384-well plates. Each was a final volume of 0.02 mL. The assay plates were incubated at room temperature with shaking for 1 hour and the affinity beads were washed with wash buffer (1×PBS, 0.05% Tween 20). The beads were then re-suspended in elution buffer (1×PBS, 0.05% Tween 20, 0.5 μM nonbiotinylated affinity ligand) and incubated at room temperature with shaking for 30 minutes. The kinase concentration in the eluates was measured by qPCR.
(§3) Binding constants (Kds) were calculated with a standard dose-response curve using the Hill equation. The Hill Slope was set to −1. Curves were fitted using a non-linear least square fit with the Levenberg-Marquardt algorithm.

A further assay deals with T2, FLT3 R834Q (Homo sapiens, UniProt P36888, R834Q).
T2 construct: host or cells: E. coli BL21-derived host (T7 phage) or HEK-293
T2 sequence (P36888 27-993 R834Q): T1 sequence (P36888 27-993 D835V) with R808Q, V809D
In words: DiscoverX KINOMEscan competition binding, FLT3 R834Q.
Description: as §1, §2, §3

11 compounds from patent US12612410B2 (CHILDREN'S HOSPITAL MEDICAL CENTER, priority 2020, dated 2026) can be followed below.

Residue numbers refer to the chain shown, from its start. pKd: −log10 of the molar value.

With `CC1(c2cn3c(-c4cccc(N[C@H]5CNC[C@@H]5F)n4)cnc3cn2)CC1` [Compound 1, N-((3S,4S)-4-fluoropyrrolidin-3-yl)-6-(6-(1-methylcyclopropyl)imidazo[1,2-a]pyrazin-3-yl)pyridin-2-amine], the pKd at FLT3 D835V was 10.82; on FLT3 R834Q it was 9.77.
`CC1(c2cn3c(-c4cccc(N[C@@H]5CCNC5)n4)cnc3cn2)CC1` [Compound 3, (R)-6-(6-(1-methylcyclopropyl)imidazo[1,2-a]pyrazin-3-yl)-N-(pyrrolidin-3-yl)pyridin-2-amine]: the negative-log Kd (pKd) at FLT3 D835V was 10.64; on FLT3 R834Q it was 9.85.
For `CC1(c2cn3c(-c4cccc(N[C@H]5CNCC56CC6)n4)cnc3cn2)CC1` [Compound 5, (R)-N-(6-(6-(1-methylcyclopropyl)imidazo[1,2-a]pyrazin-3-yl)pyridin-2-yl)-5-azaspiro[2.4]heptan-7-amine], in that order: 10.89 and 9.89.
Consider `FC(F)(F)C1(c2cn3c(-c4cccc(N[C@@H]5CCNC5)n4)cnc3cn2)CC1` [Compound 10, (R)-N-(pyrrolidin-3-yl)-6-(6-(1-(trifluoromethyl)cyclopropyl)imidazo[1,2-a]pyrazin-3-yl)pyridin-2-amine], for which the pKd at FLT3 D835V is 10.08; at FLT3 R834Q, 9.09.
For `FC(F)c1cn2c(-c3cccc(N[C@H]4CNC[C@@H]4F)n3)cnc2cn1` [Compound 16, 6-(6-(difluoromethyl)imidazo[1,2-a]pyrazin-3-yl)-N-((3S,4S)-4-fluoropyrrolidin-3-yl)pyridin-2-amine], in that order: 10.18 and 8.89.
Turning to `FC(F)c1cn2c(-c3cccc(N[C@H]4CNCC[C@@H]4F)n3)cnc2cn1` [Compound 25, 6-(6-(difluoromethyl)imidazo[1,2-a]pyrazin-3-yl)-N-((3S,4S)-4-fluoropiperidin-3-yl)pyridin-2-amine], the pKd on FLT3 D835V was 10.44; at FLT3 R834Q, 9.33.
As for `CC(C)(O)c1cn2c(-c3cccc(N[C@@H]4CCCNC4)n3)cnc2cn1` [Compound 30, (R)-2-(3-(6-(piperidin-3-ylamino)pyridin-2-yl)imidazo[1,2-a]pyrazin-6-yl)propan-2-ol], the negative logarithm of the Kd (pKd) is 9.44 at FLT3 D835V and 8.37 on FLT3 R834Q.
For the compound `CC(C)(O)c1cn2c(-c3cccc(N[C@H]4CNCC[C@@H]4F)n3)cnc2cn1` [Compound 31, 2-(3-(6-(((3S,4S)-4-fluoropiperidin-3-yl)amino)pyridin-2-yl)imidazo[1,2-a]pyrazin-6-yl)propan-2-ol], the results for the pKd on FLT3 D835V and on FLT3 R834Q were 9.77 and 8.66, respectively.
For `FC(F)(F)COc1cn2c(-c3cccc(N[C@@H]4CCNC4)n3)cnc2cn1` [Compound 38, (R)-N-(pyrrolidin-3-yl)-6-(6-(2,2,2-trifluoroethoxy)imidazo[1,2-a]pyrazin-3-yl)pyridin-2-amine], in that order: 9.92 and 8.92.
For `F[C@H]1CNC[C@@H]1Nc1cccc(-c2cnc3cnc(C4CC4)cn23)n1` [Compound 50, 6-(6-cyclopropylimidazo[1,2-a]pyrazin-3-yl)-N-((3S,4S)-4-fluoropyrrolidin-3-yl)pyridin-2-amine] the same measures were 10.82 and 9.70.
For `Cn1cc(-c2cn3c(-c4cccc(N[C@H]5CNC[C@@H]5F)n4)cnc3cn2)cn1` [Compound 52, N-((3S,4S)-4-fluoropyrrolidin-3-yl)-6-(6-(1-methyl-1H-pyrazol-4-yl)imidazo[1,2-a]pyrazin-3-yl)pyridin-2-amine], the pKd at FLT3 D835V is 10.96; on FLT3 R834Q, 9.72.
